# Results: US11142526B2, “Spirocycle compounds and methods of making and using same” (H. Lundbeck A/S, priority 2017, dated 2021)
# Read-outs that look alike come from different tables or passages of the source.
# Experiments:
# [1] = molecular target: MAGL (Mus musculus (Mouse), UniProt O35678); experiment: In vitro competitive activity-based protein profiling, mouse brain proteome; assay type: biochemical; conditions: for inhibition at 1 µM: mouse; for IC50: mouse brain
# [2] = molecular target: MAGL (Homo sapiens (Human), UniProt Q99685); experiment: In vitro competitive activity-based protein profiling (gel-based, FP-Rh or HT-01 probe); assay type: biochemical
# Method: In Vitro Competitive Activity-Based Protein Profiling.
# Proteomes (human prefrontal cortex or cell membrane fractions) (50 μL, 1.0 mg/mL total protein concentration) were preincubated with varying concentrations of inhibitors at 37° C. After 30 min, FP-Rh or HT-01 (1.0 μL, 50 μM in DMSO) was added and the mixture was incubated for another 30 min at room temperature. Reactions were quenched with SDS loading buffer (15 μL—4×) and run on SDS-PAGE.
# [3] = human PC3, read-out: MAGL % Inhibition at 1 μM (human PC3)
# [4] = human PC3, read-out: MAGL Human PC3 (IC50)
# [5] = human PFC (prefrontal cortex), read-out: MAGL % Inhibition at 1 μM (human PFC)
# Chain of MAGL (Homo sapiens (Human), UniProt Q99685) (Q99685 whole entry): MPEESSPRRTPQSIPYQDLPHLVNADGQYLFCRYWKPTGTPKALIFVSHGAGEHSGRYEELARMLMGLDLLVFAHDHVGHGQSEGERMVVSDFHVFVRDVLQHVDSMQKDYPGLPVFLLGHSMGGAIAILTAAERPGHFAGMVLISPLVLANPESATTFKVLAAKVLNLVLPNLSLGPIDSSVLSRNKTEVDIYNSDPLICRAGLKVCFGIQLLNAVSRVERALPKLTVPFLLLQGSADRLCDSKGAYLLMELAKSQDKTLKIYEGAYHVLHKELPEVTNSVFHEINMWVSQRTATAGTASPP
# Chain of MAGL (Mus musculus (Mouse), UniProt O35678) (O35678 whole entry): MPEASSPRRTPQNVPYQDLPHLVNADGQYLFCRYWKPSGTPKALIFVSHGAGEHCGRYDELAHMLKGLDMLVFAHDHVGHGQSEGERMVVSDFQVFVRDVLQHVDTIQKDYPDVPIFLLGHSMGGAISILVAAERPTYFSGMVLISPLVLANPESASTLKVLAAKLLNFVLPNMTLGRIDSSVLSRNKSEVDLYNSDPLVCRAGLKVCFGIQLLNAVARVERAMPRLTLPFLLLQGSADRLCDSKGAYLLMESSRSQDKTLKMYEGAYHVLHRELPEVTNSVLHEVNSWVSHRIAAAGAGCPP
SMILES,inhibition at 1 µM [1] [%],"inhibition at 1 µM [2, 3] [%]","IC50 [2, 4] [nM]","inhibition at 1 µM [2, 5] [%]","IC50 ([2]; human PFC (prefrontal cortex), read-out: MAGL Human PFC (IC50)) [nM]",IC50 [1] [nM]
"[2H]C1(N2CCn3cc(C(=O)N(C)C4(C)CCN(C(=O)OC(C(F)(F)F)C(F)(F)F)CC4)nc3C2)CC1 [Example 25, 1,1,1,3,3,3-hexafluoropropan-2-yl 4-(7-(cyclopropyl-1-d)-N-methyl-5,6,7,8-tetrahydroimidazo[1,2-a]pyrazine-2-carboxamido)-4-methylpiperidine-1-carboxylate]",> 75,> 75,< 100,,,
"CC(=O)N1CCn2cc(C(=O)N(C)C3(C)CCN(C(=O)OC(C(F)(F)F)C(F)(F)F)CC3)nc2C1 [Example 26, 1,1,1,3,3,3-Hexafluoropropan-2-yl 4-(7-acetyl-N-methyl-5,6,7,8-tetrahydroimidazo[1,2-a]pyrazine-2-carboxamido)-4-methylpiperidine-1-carboxylate]",25 to 75,> 75,,> 75,,
"CC1(NC(=O)c2cn3c(n2)CN(c2ncco2)CC3)CCN(C(=O)OC(C(F)(F)F)C(F)(F)F)CC1 [Example 28, 1,1,1,3,3,3-Hexafluoropropan-2-yl 4-methyl-4-(7-(oxazol-2-yl)-5,6,7,8-tetrahydroimidazo[1,2-a]pyrazine-2-carboxamido)piperidine-1-carboxylate]",> 75,> 75,,,,
"CC1(NC(=O)c2cn3c(n2)CN(c2cnccn2)CC3)CCN(C(=O)OC(C(F)(F)F)C(F)(F)F)CC1 [Example 29, 1,1,1,3,3,3-Hexafluoropropan-2-yl 4-methyl-4-(7-(pyrazin-2-yl)-5,6,7,8-tetrahydroimidazo[1,2-a]pyrazine-2-carboxamido)piperidine-1-carboxylate]",> 75,> 75,,,,
"Cc1cccnc1C1(C(=O)N2CCCC23CCN(C(=O)OC(C(F)(F)F)C(F)(F)F)CC3)CC1 [Example 30, 1,1,1,3,3,3-Hexafluoropropan-2-yl 1-(1-(3-methylpyridin-2-yl)cyclopropane-1-carbonyl)-1,8-diazaspiro[4.5]decane-8-carboxylate]",> 75,> 75,,> 75,,
"O=C(OC(C(F)(F)F)C(F)(F)F)N1CCC2(CCCN2C(=O)C2(c3ncc(C4CC4)cn3)CC2)CC1 [Example 33, 1,1,1,3,3,3-Hexafluoropropan-2-yl 1-(1-(5-cyclopropylpyrimidin-2-yl)cyclopropane-1-carbonyl)-1,8-diazaspiro[4.5]decane-8-carboxylate]",> 75,> 75,,,< 100,
"CC(C)N1CCn2c(nnc2C(=O)NC2(C)CCN(C(=O)OC(C(F)(F)F)C(F)(F)F)CC2)C1 [Example 36, 1,1,1,3,3,3-Hexafluoropropan-2-yl 4-(7-isopropyl-5,6,7,8-tetrahydro-[1,2,4]triazolo[4,3-a]pyrazine-3-carboxamido)-4-methylpiperidine-1-carboxylate]",> 75,> 75,< 100,> 75,,
"O=C(OC(C(F)(F)F)C(F)(F)F)N1CCC2(CCCN2Cc2ccc3cccc(Cl)c3n2)CC1 [Example 57, 1,1,1,3,3,3-Hexafluoropropan-2-yl 1-((8-chloroquinolin-2-yl)methyl)-1,8-diazaspiro[4.5] decane-8-carboxylate]",> 75,,< 100,,,< 100
"O=C(OC(C(F)(F)F)C(F)(F)F)N1CCC2(CCCN2C(=O)c2cn3ccccc3n2)CC1 [Example 69, 1,1,1,3,3,3-Hexafluoropropan-2-yl 1-(imidazo[1,2-a]pyridine-2-carbonyl)-1,8-diazaspiro[4.5] decane-8-carboxylate]",> 75,,< 100,,,< 100
"O=C(OC(C(F)(F)F)C(F)(F)F)N1CCC2(CCCN2C(=O)c2nc3ccccc3s2)CC1 [Example 75, 1,1,1,3,3,3-Hexafluoropropan-2-yl 1-(benzo[d]thiazole-2-carbonyl)-1,8-diazaspiro[4.5] decane-8-carboxylate]",> 75,,< 100,,,< 100
"O=C(OC(C(F)(F)F)C(F)(F)F)N1CCC2(CCCN2C(=O)c2ccn(Cc3ccccc3)n2)CC1 [Example 91, 1,1,1,3,3,3-Hexafluoropropan-2-yl 1-(1-benzyl-1H-pyrazole-3-carbonyl)-1,8-diazaspiro[4.5] decane-8-carboxylate]",> 75,,< 100,,,< 100
"O=C(OC(C(F)(F)F)C(F)(F)F)N1CCC2(CCCN2C(=O)c2ccn(-c3ccc(Cl)cc3)n2)CC1 [Example 92, 1,1,1,3,3,3-Hexafluoropropan-2-yl 1-(1-(4-chlorophenyl)-1H-pyrazole-3-carbonyl)-1,8-diazaspiro[4.5] decane-8-carboxylate]",> 75,,< 100,,,< 100

# Next, values leading:
inhibition at 1 µM [1] [%],"inhibition at 1 µM [2, 3] [%]","IC50 [2, 4] [nM]","inhibition at 1 µM [2, 5] [%]","IC50 ([2]; human PFC (prefrontal cortex), read-out: MAGL Human PFC (IC50)) [nM]",IC50 [1] [nM],SMILES
< 25,,,25 to 75,,,"O=C(OC(C(F)(F)F)C(F)(F)F)N1CCC2(CCCN2C(=O)c2cncnc2)CC1 [Example 68, 1,1,1,3,3,3-Hexafluoropropan-2-yl 1-(pyrimidine-5-carbonyl)-1,8-diazaspiro[4.5] decane-8-carboxylate]"
> 75,,< 100,,,< 100,"CC(C)n1cc(C(=O)N2CCCC23CCN(C(=O)OC(C(F)(F)F)C(F)(F)F)CC3)cn1 [Example 71, 1,1,1,3,3,3-Hexafluoropropan-2-yl 1-(1-isopropyl-1H-pyrazole-4-carbonyl)-1,8-diazaspiro[4.5] decane-8-carboxylate]"
> 75,,< 100,,,100 to 1000,"Cn1ccc(C(=O)N2CCCC23CCN(C(=O)OC(C(F)(F)F)C(F)(F)F)CC3)n1 [Example 79, 1,1,1,3,3,3-Hexafluoropropan-2-yl 1-(1-methyl-1H-pyrazole-3-carbonyl)-1,8-diazaspiro[4.5] decane-8-carboxylate]"
> 75,,< 100,,,100 to 1000,"O=C(OC(C(F)(F)F)C(F)(F)F)N1CCC2(CCCN2C(=O)c2ccc3nccn3c2)CC1 [Example 85, 1,1,1,3,3,3-Hexafluoropropan-2-yl 1-(imidazo[1,2-a]pyridine-6-carbonyl)-1,8-diazaspiro[4.5] decane-8-carboxylate]"
> 75,,< 100,,,< 100,"O=C(OC(C(F)(F)F)C(F)(F)F)N1CCC2(CCCN2C(=O)c2ccc3scnc3c2)CC1 [Example 86, 1,1,1,3,3.3-Hexafluoropropan-2-yl 1-(benzo[d]thiazole-5-carbonyl)-1,8-diazaspiro[4.5] decane-8-carboxylate]"
> 75,,< 100,,,< 100,"O=C(OC(C(F)(F)F)C(F)(F)F)N1CCC2(CCCN2C(=O)c2ccc3ocnc3c2)CC1 [Example 87, 1,1,1,3,3.3-Hexafluoropropan-2-yl 1-(benzo[d]oxazole-5-carbonyl)-1,8-diazaspiro[4.5] decane-8-carboxylate]"
> 75,,< 100,,,< 100,"O=C(OC(C(F)(F)F)C(F)(F)F)N1CCC2(CCCN2C(=O)c2cnn(Cc3ccccc3)c2)CC1 [Example 88, 1,1,1,3,3,3-Hexafluoropropan-2-yl 1-(1-benzyl-1H-pyrazole-4-carbonyl)-1,8-diazaspiro[4.5] decane-8-carboxylate]"
